Read-outs that look alike come from different tables or passages of the source.

We go through nine molecules from paper PMC7558102, “Hybrid Multimodal Imaging Synthons for Chemoselective and Efficient Biomolecule Modification with Chelator and Near-Infrared Fluorescent Cyanine Dye” (Pharmaceuticals, 2020).

The nature of data set [1]: logD of the unconjugated NIR cyanine dyes 1–3. The format is physicochemical. To be noted: 1-octanol/water; unconjugated dye.
Data set [2] is described as follows: photophysical properties (absorbance and emission measurements). Type of data set: physicochemical. Conditions: for log ε: at λmax(abs); for λmax(em): excitation wavelength λex = 650 nm. The protocol: Finally, the photophysical properties were determined for dyes, MIS and their conjugates. It could be shown that the photophysical properties remained largely unaltered, including absorption coefficients and emission characteristics (Table 1). […] The only change in photophysical properties we qualitatively observed was an increase in the quantum yields of the dye conjugates compared to their unconjugated leads 1–3, an effect that was described before and can be attributed to the conjugation of sterically demanding groups (such as the PESIN homodimers used here), resulting in a decrease in aggregation of the dye molecules and thus a reduced fluorescence quenching. γ-Counting was performed using a 2480 Wizard gamma counter system from Perkin Elmer. A Cary 100 Bio system (Varian) was used to record the UV/Vis-Spectra together with 4 mL PMMA cuvettes from Sigma-Aldrich. Furthermore, for absorbance and emission measurements, a Tecan Infinite M200 Microplate reader together with a Nunc Micro-Well 96 solid plate from ThermoFisher was used.

Data set [3] is classed as physicochemical. Conditions: pH 7.4. Here is the method:
(§1) The mixtures were vigorously shaken for 5 min on a vibrating plate. After subsequent centrifugation at 13,000 rpm for 5 min, 125 µL was taken from each phase and measured in a γ-counter. The logD values were calculated from three or four independent experiments, each performed in triplicate. For 18, the logD was determined by semipreparative HPLC. For this purpose, a solution of 18 (10 µL, c = 5 × 10^−4 mol/L) in water was added to a mixture of 1 mL 1-octanol and 990 µL phosphate buffered solution (0.05 M, pH 7.4) and vigorously shaken for 5 min. After centrifugation, the phases were separated and both phases were analyzed by semipreparative HPLC and the peaks of the UV signals at 214 nm were integrated. The logD was determined by three separate measurements, each experiment performed in triplicate.

A short description of data set [4]: water/1-octanol partition coefficients (logD) of 68Ga-labeled compounds, γ-counting. Type of data set: physicochemical. Conditions: pH 7.4. Here is the method:
as §1

Usually logD stands for the decadic logarithm of the distribution of all forms, ionised or not, between an organic phase and buffer at a given pH. For the molecule `CC1(C)C(/C=C/C2=C(c3ccccc3)C(=C/C=C3/N(CCCCS(=O)(=O)[O-])c4ccc(S(=O)(=O)O)cc4C3(C)C)/CCC2)=[N+](CCCCS(=O)(=O)O)c2ccc(C(=O)O)cc21` [Compound 2], the logD in data set [1] is -4 ± 0.11. In data set [2], the “Stokes Shift” value is given as 20 nm, the “λmax(abs)” value was found to be 761 nm, the “log ε” value is listed as 5.44 M^−1 cm^−1 and the “λmax(em)” value came out at 781 nm.

For `CC1(C)C(/C=C/C2=C(c3ccc(CCC(=O)O)cc3)C(=C/C=C3/N(CCCCS(=O)(=O)[O-])c4ccc(S(=O)(=O)O)cc4C3(C)C)/CCC2)=[N+](CCCCS(=O)(=O)O)c2ccc(S(=O)(=O)O)cc21` [Compound 3], the logD in data set [1] is -3.95 ± 0.15. Besides, in data set [2], the “Stokes Shift” value is recorded as 19 nm, the “λmax(abs)” value came to 756 nm, the “log ε” value is 5.32 M^−1 cm^−1 and the “λmax(em)” value is 775 nm.

For `CSCC[C@H](NC(=O)[C@H](CC(C)C)NC(=O)[C@H](Cc1c[nH]cn1)NC(=O)CNC(=O)[C@@H](NC(=O)[C@H](C)NC(=O)[C@H](Cc1c[nH]c2ccccc12)NC(=O)[C@H](CCC(N)=O)NC(=O)CCOCCOCCOCCOCCNC(=O)CON=Cc1ccc(C(=O)NCCCN(CCCNC(=O)c2ccc(C=NOCC(=O)NCCOCCOCCOCCOCCC(=O)N[C@@H](CCC(N)=O)C(=O)N[C@@H](Cc3c[nH]c4ccccc34)C(=O)N[C@@H](C)C(=O)N[C@H](C(=O)NCC(=O)N[C@@H](Cc3c[nH]cn3)C(=O)N[C@@H](CC(C)C)C(=O)N[C@@H](CCSC)C(N)=O)C(C)C)cc2)CC(=O)N[C@H](CSC2CC(=O)N(CCN3C(=O)CC(SC)C3=O)C2=O)C(=O)NCCOCCOCC(N)=O)cc1)C(C)C)C(N)=O` (stereo partly drawn) [Compound 18], in data set [3], the logD was -0.99 ± 0.03.

Take `CSCC[C@H](NC(=O)[C@H](CC(C)C)NC(=O)[C@H](Cc1c[nH]cn1)NC(=O)CNC(=O)[C@@H](NC(=O)[C@H](C)NC(=O)[C@H](Cc1c[nH]c2ccccc12)NC(=O)[C@H](CCC(N)=O)NC(=O)CCOCCOCCOCCOCCNC(=O)CON=Cc1ccc(C(=O)NCCCN(CCCNC(=O)c2ccc(C=NOCC(=O)NCCOCCOCCOCCOCCC(=O)N[C@@H](CCC(N)=O)C(=O)N[C@@H](Cc3c[nH]c4ccccc34)C(=O)N[C@@H](C)C(=O)N[C@H](C(=O)NCC(=O)N[C@@H](Cc3c[nH]cn3)C(=O)N[C@@H](CC(C)C)C(=O)N[C@@H](CCSC)C(N)=O)C(C)C)cc2)CC(=O)N[C@H](CSC2CC(=O)N(CCN3C(=O)CC(SC[C@H](NC(=O)[C@H](CCCCNC(=O)CCc4ccc(C5=C(C=CC6=[N+](CCCCS(=O)(=O)[O-])c7ccc(S(=O)(=O)O)cc7C6(C)C)CCCC5=CC=C5N(CCCCS(=O)(=O)O)c6ccc(S(=O)(=O)O)cc6C5(C)C)cc4)NC(=O)CC[C@H](C(=O)O)N4CCN(CC(=O)O)CCN(CC(=O)O)CC4)C(N)=O)C3=O)C2=O)C(=O)NCCOCCOCC(N)=O)cc1)C(C)C)C(N)=O` (stereo partly drawn) [[68Ga]Ga-16, metal not drawn]: the logD in data set [4] was -2.55 ± 0.13.

In the case of `CC1(C)C(/C=C/C2=C(c3ccc(C(=O)NCCCC[C@H](NC(=O)CC[C@H](C(=O)O)N4CCN(CC(=O)O)CCN(CC(=O)O)CC4)C(=O)N[C@@H](CS)C(N)=O)cc3)C(=C/C=C3/N(CCCCS(=O)(=O)[O-])c4ccc5ccccc5c4C3(C)C)/CCC2)=[N+](CCCCS(=O)(=O)O)c2ccc3ccccc3c21` [Compound 10], in data set [4], the logD is reported as −1.29 ± 0.11.

Take `CSCC[C@H](NC(=O)[C@H](CC(C)C)NC(=O)[C@H](Cc1c[nH]cn1)NC(=O)CNC(=O)[C@@H](NC(=O)[C@H](C)NC(=O)[C@H](Cc1c[nH]c2ccccc12)NC(=O)[C@H](CCC(N)=O)NC(=O)CCOCCOCCOCCOCCNC(=O)CON=Cc1ccc(C(=O)NCCCN(CCCNC(=O)c2ccc(C=NOCC(=O)NCCOCCOCCOCCOCCC(=O)N[C@@H](CCC(N)=O)C(=O)N[C@@H](Cc3c[nH]c4ccccc34)C(=O)N[C@@H](C)C(=O)N[C@H](C(=O)NCC(=O)N[C@@H](Cc3c[nH]cn3)C(=O)N[C@@H](CC(C)C)C(=O)N[C@@H](CCSC)C(N)=O)C(C)C)cc2)CC(=O)N[C@H](CSC2CC(=O)N(CCN3C(=O)CC(SC[C@H](NC(=O)[C@H](CCCCNC(=O)c4ccc(C5=C(C=CC6=[N+](CCCCS(=O)(=O)[O-])c7ccc8ccccc8c7C6(C)C)CCCC5=CC=C5N(CCCCS(=O)(=O)O)c6ccc7ccccc7c6C5(C)C)cc4)NC(=O)CC[C@H](C(=O)O)N4CCN(CC(=O)O)CCN(CC(=O)O)CC4)C(N)=O)C3=O)C2=O)C(=O)NCCOCCOCC(N)=O)cc1)C(C)C)C(N)=O` (stereo partly drawn) [[68Ga]Ga-14, metal not drawn]: the logD in data set [4] was -1.33 ± 0.04.

Turning to `NC(=O)C(CS)NC(=O)CNC(=O)CCC(C(=O)O)N1CCN(CC(=O)O)CCN(CC(=O)O)CC1` (stereo not drawn) [Compound 19, NH2-Cys-Gly-NODA-GA], the logD in data set [4] (68Ga-labeled compound, 1-octanol / phosphate buffer 0.05 M, read-out: logD) was -3.35 ± 0.15.

In the case of `CC1(C)C(/C=C/C2=C(c3ccc(C(=O)NCCCC[C@H](NC(=O)CC[C@H](C(=O)O)N4CCN(CC(=O)O)CCN(CC(=O)O)CC4)C(=O)N[C@@H](CS)C(N)=O)cc3)C(=C/C=C3/N(CCCCS(=O)(=O)[O-])c4ccc5ccccc5c4C3(C)C)/CCC2)=[N+](CCCCS(=O)(=O)O)c2ccc3ccccc3c21` (single isomer, unassigned) [[68Ga]Ga-10, metal not drawn], in data set [4], the logD was -1.29 ± 0.11.

`CC1(C)C(/C=C/C2=C(c3ccc(C(=O)O)cc3)C(=C/C=C3/N(CCCCS(=O)(=O)[O-])c4ccc5ccccc5c4C3(C)C)/CCC2)=[N+](CCCCS(=O)(=O)O)c2ccc3ccccc3c21` [Compound 1]: in data set [1], the logD is -1.03 ± 0.11. Further, in data set [2], the “Stokes Shift” value was 11 nm, the “λmax(abs)” value is recorded as 804 nm, the “log ε” value is given as 5.00 M^−1 cm^−1 and the “λmax(em)” value is given as 815 nm.
